Results on one compound are retold here after ChEMBL document CHEMBL1151619, “Structure and conformation of two new dolabellane-based diterpenes from Dictyota sp” (J Nat Prod, 1984).

Active and inactive are the calls of the source. The rule behind the calls is not given here.

The assay deals with KB. The experiment in a line: Cytotoxicity against human KB cells. It is filed as functional, cell-based.

Consider `C=C(C)[C@@H]1CC[C@]2(C)C[C@H](OC(C)=O)/C(CO)=C/CC/C(C)=C/C[C@@H]12`, for which the outcome was Active.
